Values joined by “and” are separate entries in the source; they are usually repeats but may differ in a detail not shown here. Equal entries are not always repeated.
Assays:
17β-HSD10 [1] = molecular target: T1, 17β-HSD10 (Homo sapiens, UniProt Q99714); test: Inhibition of 17β-HSD10 in stably transfected HEK-293 whole cells (E2 into E1); assay type: cell-based
T1 construct: expressed in transfected cells
T1 sequence (Q99714 1-261): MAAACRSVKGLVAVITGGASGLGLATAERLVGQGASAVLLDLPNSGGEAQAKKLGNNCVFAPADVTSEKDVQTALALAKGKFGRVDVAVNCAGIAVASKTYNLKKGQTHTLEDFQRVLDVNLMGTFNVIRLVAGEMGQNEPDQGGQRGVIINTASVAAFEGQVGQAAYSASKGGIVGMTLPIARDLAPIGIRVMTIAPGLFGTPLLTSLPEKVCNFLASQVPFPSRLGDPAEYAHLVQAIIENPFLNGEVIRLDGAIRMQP

[2] = test system: ovariectomized (OVX) mice; test: In vivo estrogenic activity (uterotrophic assay) in OVX mice; parameters: species or system mouse; settings: OVX mice, s.c. BID, 7 days
Procedure: The mice were fed rodent chow and tap water ad libitum. The animals were ovariectomized (OVX) under isoflurane-anaesthesia via bilateral flank incisions and randomly assigned to groups (5 animals by group). Mice in the OVX control group received the vehicle alone (8% ethanol-0.4% methylcellulose) during the 7-day period. The possible estrogenic activity of tested compounds was evaluated after their administration by subcutaneous (s.c.) injection [1, 10 and 100 μg/kg, s.c., twice daily (BID)] as suspension in 8% ethanol-0.4% methylcellulose to OVX female mice for 7 days. On day 8, the mice were sacrificed by cervical dislocation. The uteri and vagina were rapidly removed, freed from fat and connective tissue and weighed. Results are the means±SEM of 5 mice per group.

17β-HSD10 [3] = molecular target: T1, 17β-HSD10; settings: read-out: Km of the enzyme for E2 as a substrate; cited from earlier work
17β-HSD3 [4] = molecular target: T2, 17β-HSD3 (Homo sapiens, UniProt P37058); test: Inhibition of 17β-HSD3 in intact HEK-293 cells; assay type: cell-based
T2 construct: expressed in transfected cells; host or cells: HEK-293 (homogenate)
T2 sequence (P37058 1-310): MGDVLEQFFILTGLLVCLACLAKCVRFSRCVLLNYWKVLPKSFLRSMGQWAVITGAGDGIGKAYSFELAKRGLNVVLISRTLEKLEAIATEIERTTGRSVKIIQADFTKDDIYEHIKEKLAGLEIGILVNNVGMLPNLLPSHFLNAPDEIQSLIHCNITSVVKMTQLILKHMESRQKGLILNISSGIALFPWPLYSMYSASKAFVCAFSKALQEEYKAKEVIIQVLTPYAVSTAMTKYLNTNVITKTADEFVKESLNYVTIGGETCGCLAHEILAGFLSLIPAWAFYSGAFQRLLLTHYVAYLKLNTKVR

[5] = test system: androgen-sensitive (AR+) Shionogi cells; test: Proliferative (androgenic) activity on androgen-sensitive Shionogi cells; assay type: cell-based; settings: 0.1 and 1 μM
Procedure: The proliferative (androgenic) activity was determined using androgen-sensitive Shionogi cells following a known literature procedure.^54 Inhibitors and reference compounds were tested at two concentrations (0.1 and 1.0 μM). The androgenicity was reported as % cell proliferation (versus the control). The basal cell proliferation (control) was fixed at 100%.

17β-HSD3 [6] = molecular target: T2, 17β-HSD3; test: Inhibition of 17β-HSD3 in homogenated HEK-293 cells; assay type: biochemical; settings: Table 3
[7] = test system: ovariectomized (OVX) BALB/c mice; test: In vivo estrogenicity assay in OVX mice (uterus, vagina weight); parameters: species or system mouse; settings: OVX mice, s.c., 0.02 μg/mouse/day
Procedure: Female ovariectomized (OVX) BALB/c mice weighing approximately 20 g were obtained from Charles-River, Inc. (St-Constant, Qc., Canada). The animals were housed 5 per cage. Groups of 5 mice were treated with E1 (0.02 μg in 8% EtOH/92% PG) or 17β-HSD1 inhibitor at 10, 50 and 250 μg (0.1 mL s.c.) daily for 7 days. Animals were killed 24 h after administration of the last dose of compound and uteri and vagina were removed, excised of fat and weighed. Total body weights of mice were also recorded.

T-47D tumors = test: Inhibition of E1-stimulated T-47D tumor growth in nude OVX mice (xenograft); assay type: in vivo, mouse
Procedure: Female OVX BALB/c athymic nude mice weighing approximately 20 g were obtained from Charles-River, Inc. (St-Constant, Qc., Canada). The animals were housed 5 per cage. […] T-47D tumor growth was stimulated using 0.1 μg of E1 s.c. per mouse per day for 15 days. From day 16, animals with tumors were randomized in function of tumor volume and separated into three groups. Group 1 (control mice) was treated s.c. with 100 μL of vehicle alone (8% EtOH/92% PG) per mouse per day. Group 2 (E1 0.1 μg) was treated with E1 (0.1 μg/day, s.c. per mouse) during 32 days. Group 3 (E1 0.1 μg+Compound V 250 μg) was treated with E1 (0.1 μg/day) and Compound V (250 μg/day) per mouse in a combined s.c. injection for 32 days. The mice were weighed at start and volumes of tumors were determined by external caliper twice a week and the greatest longitudinal diameter (length) and the greatest transverse diameter (width) were determined. Tumor volume based on caliper measurements was calculated by the modified ellipsoidal formula: Tumor volume=½(length×width^2) (Jensen M M, Jorgensen J T, Binderup T, Kjaer A. Tumor volume in subcutaneous mouse xenografts measured by microCT is more accurate and reproducible than determined by 18F-FDG-microPET or external caliper. BMC Med Imaging 2008; 8:16). At the end of the studies the mice were terminally anaesthetized, final body weights and tumor sizes were determined. Uteri and vagina were removed, excised of fat and weighed (Day J M, Foster P A, Tutill H J, Parsons M F, Newman S P, Chander S K, et al. 17beta-hydroxysteroid dehydrogenase type 1, and not type 12, is a target for endocrine therapy of hormone-dependent breast cancer. Int J Cancer 2008; 122:1931-40; Husen B, Huhtinen K, Poutanen M, Kangas L, Messinger J, Thole H. Evaluation of inhibitors for 17beta-hydroxysteroid dehydrogenase type 1 in vivo in immunodeficient mice inoculated with MCF-7 cells stably expressing the recombinant human enzyme. Mol Cell Endocrinol 2006; 248:109-13; Husen B, Huhtinen K, Saloniemi T, Messinger J, Thole H H, Poutanen M: Human hydroxysteroid (17-beta) dehydrogenase 1 expression enhances estrogen sensitivity of MCF-7 breast cancer cell xenografts. Endocrinology 2006; 147:5333-9; Messinger J, Hirvela L, Husen B, Kangas L, Koskimies P, Pentikainen O, et al. New inhibitors of 17beta-hydroxysteroid dehydrogenase type 1. Mol Cell Endocrinol 2006; 248:192-8).

T-47D cells = test: Inhibition of E1-stimulated T-47D cell proliferation; assay type: cell-based, human; settings: E1 0.1 nM, no inhibitor; control 100%
Procedure: Quantification of cell growth was determined by using CellTiter 96®Aqueous Solution Cell Proliferation Assay (Promega, Nepean, ON, Canada) following the manufacturer's instructions. T-47D cells were resuspended with the medium supplemented with insulin (50 ng/mL) and 5% dextran-coated charcoal treated FBS rather than 10% FBS to remove remaining hormones. Aliquots (100 μL) of the cell suspension were seeded in 96-well plates (3000 cells/well). After 48 h, the medium was changed with a new one containing an appropriate concentration of products to be tested and was replaced every 2 days. Cells have grown either in absence or presence of the compounds for 7 days. To determine the proliferative (estrogenic) activity, the estrogen-sensitive T-47D cells were grown in absence (basal cell proliferation was fixed as 100%) or presence of compounds to be tested at 0.5 to 10 μM. The potent estrogen E2 was used as a reference control. […] The cell proliferation without E1±inhibitor (control) was fixed as 100%. To determine the potential antiestrogenic activity of inhibitor Compound V, the T-47D (ER^+) cells were grown in the presence of estrogen E2 (0.1 nM) and pure antiestrogen EM-139 (0.5 μM) or inhibitor Compound V (0.5 μM). The cell proliferation without E2 and tested compounds (control) were fixed as 100%.

C[C@]12CC[C@@H]3c4ccc(O)cc4CC[C@H]3[C@@H]1CC[C@@H]2O [17β-E2 (1), 17β-estradiol]
IC50 (17β-HSD10 [1]): > 10000 nM | uterine weight ([2]; 1 μg/kg): 125 mg | uterine weight ([2]; 10 μg/kg): 155 mg | uterine weight ([2]; 100 μg/kg): 160 mg | Km (17β-HSD10 [3]): 43 µM

CC1CN(S(=O)(=O)c2ccccc2C(F)(F)F)C(C)CN1CC1(O)CCC2(C)C(CCC3C4CCC(=O)C4(C)CCC32)C1 (stereo not drawn) [Compound 15b, (3α,5α)-3-{[(2ξ,5ξ)-2,5-dimethyl-4-{[2-(trifluoromethyl)phenyl]sulfonyl}piperazin-1-yl]methyl}-3-hydroxyandrostan-17-one]
Inhibition (%) at 1 μM (17β-HSD10 [1]; [14C]-E2 (1 μM) into [14C]-E1, intact HEK-293 cells, 1 μM): 30% | Intact cells (%) (0.1 μM) (17β-HSD3 [4]; Table 3, 0.1 μM): 84% | IC50 (17β-HSD3 [4]; intact HEK-293 cells overexpressing 17β-HSD3, [14C]-Δ4-dione 50 nM): 6 nM and 5 nM | fold better inhibitor than reference compound 5 (17β-HSD3 [4]; ratio of IC50 values): 8 fold | fold better than unlabelled Δ4-dione used as inhibitor (17β-HSD3 [4]; ratio of IC50 values): 56 fold | proliferative (androgenic) effect [5]: did not stimulate the proliferation of AR^+ cells | Homo (%) (0.01 μM) (17β-HSD3 [6]; 0.01 μM): 55% | Homo (%) (0.1 μM) (17β-HSD3 [6]; 0.1 μM): 92%

C[C@]12CC[C@@H]3c4ccc(O)cc4CC[C@H]3[C@@H]1CCC2=O [Compound E1, estrone, reference compound]
increase in uterine weight compared to OVX-CTR (times) [7]: 2.5 | uterine weight [7]: 55 mg | tumor size, % of initial size (T-47D tumors; E1 0.1 μg/day s.c. alone, 32 days): 136% | effect on mouse weight (T-47D tumors; mouse, in vivo): no effect | cell growth induced by E1 alone (T-47D cells): 250%

— patent US11072632B2, “Inhibitors of 17β-HSD1, 17β-HSD3 and 17β-HSD10” (UNIVERSITÉ LAVAL, priority 2011, dated 2021)
